Laboratory results reported in patent US8580829B2 (Boehringer Ingelheim International GmbH, priority 2010, dated 2013).
Where two headings read alike, the source gives them in different places.

Legend:
[1] = test system: synthesis of LTB4 in human whole blood; assay: human whole blood LTB4 production inhibition assay; assay type: cell-based; settings: heparinized human whole blood, calcimycin 20 μM, read-out: hWB LTB4 IC50
How it was run: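 LTB4 levels in plasma were measured by antibody-based HTRF after heparinized human whole blood, pretreated with compound (15 min, 37° C), was challenged with 20 μM calcimycin for 30 min at 37° C.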

[2] = target: T1, recombinant human FLAP protein (Homo sapiens, UniProt P20292); assay: FLAP binding assay (Scintillation Proximity Assay, displacement of [125I]L-691,831); settings: recombinant human FLAP membranes, [125I]L-691,831 probe; read-out: FLAP SPA IC50
T1 construct: made in house; host or cells: Sf9 insect cells (100,000 x g membrane fraction)
T1 sequence (P20292 1-161): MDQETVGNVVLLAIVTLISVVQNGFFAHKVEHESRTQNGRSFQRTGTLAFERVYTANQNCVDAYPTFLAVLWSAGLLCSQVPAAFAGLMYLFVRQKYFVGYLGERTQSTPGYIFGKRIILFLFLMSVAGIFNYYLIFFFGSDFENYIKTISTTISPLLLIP
How it was run: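 WGA scintillation proximity beads were stirred 1 h with 5 μg of FLAP-containing membrane protein. The membranes came from baculovirus Sf9 cells, Dounce-lysed and spun to a 100,000×g pellet in buffer at pH 7.5.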

Row | IC50 ([1]; Homo sapiens) [nM] | IC50 [2] [nM] | SMILES | IC50 [1] [nM]
1 | 44 | 5.3 | CN(C)CCN(C)c1cnc(-c2nc(C3(c4ccc(-c5cnc(N)nc5)cc4)CCC3)no2)cn1 [Example 271, N-[5-(3-{1-[4-(2-Amino-pyrimidin-5-yl)-phenyl]-cyclobutyl}-[1,2,4]oxadiazol-5-yl)-pyrazin-2-yl]-N,N′,N′-trimethyl-ethane-1,2-diamine] | 
2 | 79 | 3.8 | Cn1cc(-c2nc(C3(c4ccc(-c5cnc6c(c5)CCN6)cc4)CCC3)no2)cn1 [Example 272, 5-(4-{1-[5-(1-Methyl-1H-pyrazol-4-yl)-[1,2,4]oxadiazol-3-yl]-cyclobutyl}-phenyl)-2,3-dihydro-1H-pyrrolo[2,3-b]pyridine] | 
3 | 79 | 3.9 | Cn1cc(-c2nc(C3(c4ccc(-c5cnc6[nH]ccc6c5)cc4)CCC3)no2)cn1 [Example 273, 5-(4-{1-[5-(1-Methyl-1H-pyrazol-4-yl)-[1,2,4]oxadiazol-3-yl]-cyclobutyl}-phenyl)-1H-pyrrolo[2,3-b]pyridine] | 
4 | 220 | 8.8 | Cn1cc(-c2nc(C3(c4ccc(-c5cnc(N)c(CO)c5)cc4)CCC3)no2)cn1 [Example 274, [2-Amino-5-(4-{1-[5-(1-methyl-1H-pyrazol-4-yl)-[1,2,4]oxadiazol-3-yl]-cyclobutyl}-phenyl)-pyridin-3-yl]-methanol] | 
5 | 140 | 2.8 | CN(C)C(=O)Cn1cc(-c2nc(C3(c4ccc(-c5cnc6[nH]ccc6n5)cc4)CCC3)no2)cn1 [Example 275, N,N-Dimethyl-2-[4-(3-{1-[4-(5H-pyrrolo[2,3-b]pyrazin-2-yl)-phenyl]-cyclobutyl}-[1,2,4]oxadiazol-5-yl)-pyrazol-1-yl]-acetamide] | 
6 | 110 | 7 | CNc1ncc(-c2ccc(C3(c4noc(-c5cnn(CC(=O)N(C)C)c5)n4)CCC3)cc2)cn1 [Example 276, N,N-Dimethyl-2-[4-(3-{1-[4-(2-methylamino-pyrimidin-5-yl)-phenyl]-cyclobutyl}-[1,2,4]oxadiazol-5-yl)-pyrazol-1-yl]-acetamide] | 
7 | 2800 | 260 | Nc1ncc(-c2ccc(C3(c4noc(Cn5ccnc5)n4)CCC3)cc2)cn1 [Example 277, 5-{4-[1-(5-Imidazol-1-ylmethyl-[1,2,4]oxadiazol-3-yl)-cyclobutyl]-phenyl}-pyrimidin-2-ylamine] | 
8 | 1700 | 78 | CC(C)(O)Cc1nc(C2(c3ccc(-c4cnc(N)nc4)cc3)CCC2)no1 [Example 278, 1-(3-{1-[4-(2-Amino-pyrimidin-5-yl)-phenyl]-cyclobutyl}-[1,2,4]oxadiazol-5-yl)-2-methyl-propan-2-ol] | 
9 | > 5000 | 29 | Cc1n[nH]c(C)c1Cc1nc(C2(c3ccc(-c4cnc(N)nc4)cc3)CCC2)no1 [Example 279] | 
10 | 1400 | 17 | CN1CCCCC1c1nc(C2(c3ccc(-c4cnc(N)nc4)cc3)CCC2)no1 (centres unmarked) [Example 280, 5-(4-{1-[5-(1-Methyl-piperidin-2-yl)-[1,2,4]oxadiazol-3-yl]-cyclobutyl}-phenyl)-pyrimidin-2-ylamine] | 
11 | 1100 | 26 | Nc1ncc(-c2ccc(C3(c4noc([C@H]5CCCCN5)n4)CCC3)cc2)cn1 [Example 282, 5-{4-[1-((R)-5-Piperidin-2-yl-[1,2,4]oxadiazol-3-yl)-cyclobutyl]-phenyl}-pyrimidin-2-ylamine] | 
12 | 1400 | 60 | Nc1ncc(-c2ccc(C3(c4noc(C5CCCCN5)n4)CCC3)cc2)cn1 (centres unmarked) [Example 283, 5-{4-[1-(5-Piperidin-2-yl-[1,2,4]oxadiazol-3-yl)-cyclobutyl]-phenyl}-pyrimidin-2-ylamine] | 

Continued, compound first:

Row | SMILES | IC50 ([1]; Homo sapiens) [nM] | IC50 [2] [nM] | IC50 [1] [nM]
13 | CO[C@@H]1CCN(C(=O)Cn2cc(-c3nc(C4(c5ccc(-c6cnc(N)nc6)cc5)CCC4)no3)cn2)C1 [Example 256, 2-[4-(3-{1-[4-(2-Amino-pyrimidin-5-yl)-phenyl]-cyclobutyl}-[1,2,4]oxadiazol-5-yl)-pyrazol-1-yl]-1-((R)-3-methoxy-pyrrolidin-1-yl)-ethanone] | 220 | 22 | 
14 | Cn1cc(-c2nc(C3(c4ccc(-c5cnc(N)nc5)cc4)CC3)no2)cn1 [Example 257, 5-(4-{1-[5-(1-Methyl-1H-pyrazol-4-yl)-[1,2,4]oxadiazol-3-yl]-cyclopropyl}-phenyl)-pyrimidin-2-ylamine] | 2200 | 100 | 
15 | Cn1cc(-c2nc(C3(c4ccc(-c5ccc(N)nn5)cc4)CCC3)no2)cn1 [Example 258, 6-(4-{1-[5-(1-Methyl-1H-pyrazol-4-yl)-[1,2,4]oxadiazol-3-yl]-cyclobutyl}-phenyl)-pyridazin-3-ylamine] | 610 | 73 | 
16 | CO[C@H]1CCN(C(=O)Cn2cc(-c3nc(C4(c5ccc(-c6cnc(N)nc6)cc5)CCC4)no3)cn2)C1 [Example 259, 2-[4-(3-{1-[4-(2-Amino-pyrimidin-5-yl)-phenyl]-cyclobutyl}-[1,2,4]oxadiazol-5-yl)-pyrazol-1-yl]-1-((S)-3-methoxy-pyrrolidin-1-yl)-ethanone] | 210 | 16 | 
17 | Cn1cc(-c2nc(C3(c4ccc(-c5ccc(N)c(C#N)c5)cc4)CCC3)no2)cn1 [Example 260] | 2000 | 76 | 
18 | Cn1cc(-c2nc(C3(c4ccc(-c5cnc(N)c(C#N)c5)cc4)CCC3)no2)cn1 [Example 261, 2-Amino-5-(4-{1-[5-(1-methyl-1H-pyrazol-4-yl)-[1,2,4]oxadiazol-3-yl]-cyclobutyl}-phenyl)-nicotinonitrile] | 240 | 9.3 | 
19 | Cn1cc(-c2nc(C3(c4ccc(-c5cnc6[nH]ccc6n5)cc4)CCC3)no2)cn1 [Example 262, 2-(4-{1-[5-(1-Methyl-1H-pyrazol-4-yl)-[1,2,4]oxadiazol-3-yl]-cyclobutyl}-phenyl)-5H-pyrrolo[2,3-b]pyrazine] | 27 | 2.4 | 
20 | Nc1ncc(-c2ccc(C3(c4noc(-c5cn(C6COC6)cn5)n4)CCC3)cc2)cn1 [Example 263, 5-(4-{1-[5-(1-Oxetan-3-yl-1H-imidazol-4-yl)-[1,2,4]oxadiazol-3-yl]-cyclobutyl}-phenyl)-pyrimidin-2-ylamine] | 190 | 16 | 
21 | Nc1ncc(-c2ccc(C3(c4noc(-c5cncn5C5COC5)n4)CCC3)cc2)cn1 [Example 264, 5-(4-{1-[5-(3-Oxetan-3-yl-3H-imidazol-4-yl)-[1,2,4]oxadiazol-3-yl]-cyclobutyl}-phenyl)-pyrimidin-2-ylamine] | 280 | 8.3 | 
22 | Cn1cnc(-c2nc(C3(c4ccc(-c5cnc(N)cn5)cc4)CCC3)no2)c1 [Example 265] | 55 | 6.2 | 
23 | Nc1ncc(-c2ccc(C3(c4noc(-c5csc(N6CCNCC6)n5)n4)CCC3)cc2)cn1 [Example 266, 5-(4-{1-[5-(2-Piperazin-1-yl-thiazol-4-yl)-[1,2,4]oxadiazol-3-yl]-cyclobutyl}-phenyl)-pyrimidin-2-ylamine] | 160 | 6.5 | 
24 | CN(C)C(=O)Cn1cc(-c2nc(C3(c4ccc(-c5cnc(N)nc5)cc4)CC3)no2)cn1 [Example 268, 2-[4-(3-{1-[4-(2-Amino-pyrimidin-5-yl)-phenyl]-cyclopropyl}-[1,2,4]oxadiazol-5-yl)-pyrazol-1-yl]-N,N-dimethyl-acetamide] | > 5000 | 670 | 
25 | Nc1ncc(-c2ccc(C3(c4noc(-c5csc(C6CCNCC6)n5)n4)CCC3)cc2)cn1 [Example 269] |  | 5.6 | 320
